In patent US8778871B2 (Takeda Pharmaceutical Company Limited, priority 2004, dated 2014):
Non-standard residues stand in square brackets, D forms with d. No end group written: not given here. NMeW = CN[C@@H](Cc1c[nH]c2ccccc12)C(=O)O; Phe(4-F) = N[C@@H](Cc1ccc(F)cc1)C(=O)O; 2Nal = N[C@@H](Cc1ccc2ccccc2c1)C(=O)O; Arg(Me) = CNC(=N)NCCC[C@H](N)C(=O)O; Tic = O=C(O)[C@@H]1Cc2ccccc2CN1; 2Thi = N[C@@H](Cc1cccs1)C(=O)O; azaGly = NNC(=O)O

How the values were obtained:
hOT7T175 = target: T1, hOT7T175 (Homo sapiens, UniProt Q969F8, L364H); format: cell-based; settings: hOT7T175/CHO, FLIPR, evaluation for 40 seconds after initiation of the reaction
T1 construct: expressed in transfected cells
T1 sequence (Q969F8 whole entry L364H): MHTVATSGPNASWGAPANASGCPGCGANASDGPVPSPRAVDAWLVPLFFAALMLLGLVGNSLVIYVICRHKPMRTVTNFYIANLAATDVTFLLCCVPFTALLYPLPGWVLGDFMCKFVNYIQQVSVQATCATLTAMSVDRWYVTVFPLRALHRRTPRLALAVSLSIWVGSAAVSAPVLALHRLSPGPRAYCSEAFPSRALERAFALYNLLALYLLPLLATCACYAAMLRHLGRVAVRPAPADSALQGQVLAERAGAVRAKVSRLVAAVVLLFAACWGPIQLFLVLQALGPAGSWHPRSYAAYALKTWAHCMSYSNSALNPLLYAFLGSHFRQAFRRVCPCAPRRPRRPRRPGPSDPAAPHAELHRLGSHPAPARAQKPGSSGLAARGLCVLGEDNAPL
Experimental: The intracellular Ca ion level-increasing activity was measured using FLIPR as in TEST EXAMPLE 2.

[1] = Action of reducing testosterone level in blood in mature male rat (1 mM peptide in 50% DMSO, ALZET osmotic pump); format: in vivo; settings: 1 mM peptide in 50% DMSO aqueous solution, ALZET osmotic pump s.c., six days
Experimental: The peptide was encapsulated in five ALZET osmotic pump (Model 2001, 0.2 ml of volume, releasing rate 0.001 ml/hr, DURECT Corporation). The ALZET pumps encapsulated with the peptide solution were implanted to dorsal subcutaneous of five male CD (SD) IGS rat at nine weeks age (Charles River Japan, Inc.) anesthesized with ether for one pump to one rat. Separately, for negative controls, the ALZET osmotic pumps encapsulated with distilled water were implanted to five male CD (SD) IGS rat (Charles River Japan, Inc.) The rats were bred for six days under the normal conditions. After weighing, blood was collected by decapitation. To 1 ml of blood, 0.03 ml of aprotinin (Trasylol, Byer) solution containing 0.1 g/ml EDTA 2Na was added. The plasma was isolated by centrifugation at 1,800×g for 25 minutes and collected. The thus obtained plasma, 0.05 ml was effected by radioimmunoassay. (DPC Total Testosterone Kit, Diagnostic Products Corporation) to measure testosterone level in blood of each rat. The value beneath measuring limit of radioimmunoassay (0.04 ng/ml as concentration of plasma) was treated as zero. The mean values for testosterone level of five rats, to which the peptide was given, was calculated and the relative value (percentage) for the mean values of testosterone level of five rats, to which distilled watrer was given, was estimated.

Row | Substance | Specific Act. (EC50/MS10 EC50) (hOT7T175) | Testosterone level in Blood [1]
1 | Ac-[dY][dW]NTF[azaGly]L[Arg(Me)][Phe(4-F)]-NH2 [Compound No. 592] | 1.1 | 2%
2 | Ac-[dY][dW]NT[Phe(4-F)][azaGly]L[Arg(Me)]W-NH2 [Compound No. 637] | 0.8 | 2%
3 | Ac-[dY][dW]NTF[azaGly]L[Arg(Me)][2Thi]-NH2 [Compound No. 590] | 1.4 | 2%
4 | Ac-[dY][Tic]NTF[azaGly]L[Arg(Me)]W-NH2 [Compound No. 662] | 0.7 | 2%
5 | Ac-[dY][dW]NTF[azaGly]LRW-NH2 [Compound No. 600] | 0.3 | 2%
6 | D-Tyr-D-Pya(4)-Asn-Ser-Phe-AzaGly-Leu-Arg(Me)-PheΨ(CSNH)NH2 [Compound No. 548] | 1.7 | 18%
7 | Ac-D-Tyr-NMeTrp-Asn-Thr-Phe-AzaGly-Leu-Arg(Me)-Trp-NH2 (Ac-[dY][NMeW]NTF[azaGly]L[Arg(Me)]W-NH2; SMILES CNC(=N)NCCC[C@H](NC(=O)[C@H](CC(C)C)NC(=O)NNC(=O)[C@H](Cc1ccccc1)NC(=O)[C@@H](NC(=O)[C@H](CC(N)=O)NC(=O)[C@H](Cc1c[nH]c2ccccc12)N(C)C(=O)[C@@H](Cc1ccc(O)cc1)NC(C)=O)[C@@H](C)O)C(=O)N[C@@H](Cc1c[nH]c2ccccc12)C(N)=O) [Compound No. 672] | 2.1 | 2%
8 | Ac-Tyr-Trp-Asn-Thr-Phe-AzaGly-Leu-Arg(Me)-Trp-NH2 (Ac-YWNTF[azaGly]L[Arg(Me)]W-NH2; SMILES CNC(=N)NCCC[C@H](NC(=O)[C@H](CC(C)C)NC(=O)NNC(=O)[C@H](Cc1ccccc1)NC(=O)[C@@H](NC(=O)[C@H](CC(N)=O)NC(=O)[C@H](Cc1c[nH]c2ccccc12)NC(=O)[C@H](Cc1ccc(O)cc1)NC(C)=O)[C@@H](C)O)C(=O)N[C@@H](Cc1c[nH]c2ccccc12)C(N)=O) [Compound No. 664] | 0.6 | 6%
9 | D-Tyr-D-Tyr-D-Trp-Asn-Thr-Phe-AzaGly-Leu-Arg(Me)-Trp-NH2 ([dY][dY][dW]NTF[azaGly]L[Arg(Me)]W-NH2; N-terminus assumed; SMILES CNC(=N)NCCC[C@H](NC(=O)[C@H](CC(C)C)NC(=O)NNC(=O)[C@H](Cc1ccccc1)NC(=O)[C@@H](NC(=O)[C@H](CC(N)=O)NC(=O)[C@@H](Cc1c[nH]c2ccccc12)NC(=O)[C@@H](Cc1ccc(O)cc1)NC(=O)[C@H](N)Cc1ccc(O)cc1)[C@@H](C)O)C(=O)N[C@@H](Cc1c[nH]c2ccccc12)C(N)=O) [Compound No. 650] | 0.6 | 2%
10 | Ac-[dY][dW]NTF[azaGly]L[Arg(Me)][2Nal]-NH2 [Compound No. 589] | 2.3 | 2%
11 | Ac-[dY][dF]NTF[azaGly]L[Arg(Me)]W-NH2 [Compound No. 627] | 1.6 | 2%
12 | Ac-[dF][dW]NTF[azaGly]L[Arg(Me)]W-NH2 [Compound No. 618] | 1.6 | 2%
13 | Ac-Tyr-D-Tyr-D-Trp-Asn-Thr-Phe-AzaGly-Leu-Arg(Me)-Trp-NH2 (Ac-Y[dY][dW]NTF[azaGly]L[Arg(Me)]W-NH2; SMILES CNC(=N)NCCC[C@H](NC(=O)[C@H](CC(C)C)NC(=O)NNC(=O)[C@H](Cc1ccccc1)NC(=O)[C@@H](NC(=O)[C@H](CC(N)=O)NC(=O)[C@@H](Cc1c[nH]c2ccccc12)NC(=O)[C@@H](Cc1ccc(O)cc1)NC(=O)[C@H](Cc1ccc(O)cc1)NC(C)=O)[C@@H](C)O)C(=O)N[C@@H](Cc1c[nH]c2ccccc12)C(N)=O) [Compound No. 676] | 1.4 | 2%
